Two compounds from patent publication US6953789B2, “Thiol compounds, their production and use” (Takeda Chemical Industries, Ltd., priority 1998, dated 2005) can be followed below.

The structures appear in SMILES notation.

For test [1], the system named is nasal cartilage. The experiment in a line: Assay of cartilage collagen degradation inhibiting activity (IL-1β-stimulated nasal cartilage pieces, hydroxyproline release). It is filed as cell-based, cow. The note with it: 504 h; at 1 μM of compound; human recombinant IL-1β; incubation 3 weeks. Here is the method:
A nasal cartilage was isolated aseptically from a sacrificed cow, and preincubated in a Dulbecco's modified eagle medium containing 5% heat-inactivated fetal bovine serum, 100 units/ml of penicillin G and 100 units/ml of streptomycin at 37° C. under 5% CO2 and 95% air for 3 days. After completing the preincubation, a cartilage piece weighing about 10 mg was prepared and placed in 100 μl of a medium supplemented with a human recombinant interleukin-1β (IL-1β: *ZENZYME*) and a test compound. After incubating for 3 weeks in total during which the culture medium was replaced on the weekly basis, the total amount of hydroxyproline liberated into the culture medium and the amount of hydroxyproline remaining in the cartilage piece were determined and % collagen degradation was calculated. The collagen degradation inhibiting activity of a test compound was determined according to the following equation. Collagen degradation inhibiting activity (%)=100×(Ci−Cs)/(Ci−Cc) Equation: wherein Cc is % collagen degradation in the absence of both of IL-1β and compound, Ci is % collagen degradation in the presence of IL-1β, and Cs is a % collagen degradation in the presence of both of IL-1β and a test compound.

Test [2] deals with T1, recombinant human MMP-13 (Homo sapiens, UniProt P45452).
T1 construct: made in house; host or cells: baculovirus (pBlueBac4 / Bac-N-Blue; virus made in Sf9), expressed in High-Five insect cells; culture supernatant used
The experiment in a line: Assay of MMP-13 inhibiting activity (fluorogenic peptide substrate). Conditions: Table 3; 37° C., 2 hours. It is filed as biochemical. In a few lines:
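Baculovirus-expressed human MMP-13 (High-Five cell supernatant) in pH 7.5 Tris buffer with 200 mM NaCl, 20 mM CaCl2, 0.1% Brij 35, 1 mM 2-mercaptoethanol; reaction started with 40 μM (stock) MOCAc-PLGL-A2pr(DNP)-AR-NH2, 2 h at 37 °C, stopped at pH 3.0. Fluorescence 330/405 nm; IC50 versus no-compound control.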

One may read the inhibition as the share of the control response that was lost under treatment. By IC50 is commonly meant the concentration that gives 50% inhibition. Regarding `CC(=O)S[C@@H]1CC(=O)N(Cc2ccc(Oc3ccccc3)cc2)C1` [Example 24, (R)-4-Acetylthio-1-(4-phenoxybenzyl)pyrrolidin-2-one], the inhibition at 1 µM in test [1] is 91%. Further, the IC50 in test [2] turned out to be 9 nM.
For the compound `O=C1C[C@@H](S)CN1Cc1ccc(Oc2ccccc2)cc1` [Example 25, (R)-4-Mercapto-1-(4-phenoxybenzyl)pyrrolidin-2-one], the inhibition at 1 µM in test [1] came out at 88%. Moreover, the IC50 in test [2] was found to be 3 nM.
